One assay addresses T1, DDR1 (Homo sapiens, UniProt Q08345).
T1 construct: purchased Carna Biosciences
Briefly: LanthaScreen Europium Kinase Binding assay, DDR1. The conditions noted are these: 5 nM DDR1, 20 nM Kinase Tracer 178, 1 h at rt; Ki from IC50 by Cheng-Prusoff; read-out: Ki DDR1. On the procedure:
(§1) DDR1 and DDR2 binding assays were performed using Life Technologies LanthaScreen™ Europium Kinase Binding assay. […] IC50 values were determined in GraphPad Prism 7.0 software, using 4 parameter model: log (inhibitor) vs. response. IC50 values were converted in Ki using the Cheng-Prusoff equation (Ki-IC50/(1+ [Tracer]/Kd).

The target of another assay is T2, DDR2 (Homo sapiens, UniProt Q16832).
T2 construct: purchased Life Technologies
T2 sequence (Q16832 22-855): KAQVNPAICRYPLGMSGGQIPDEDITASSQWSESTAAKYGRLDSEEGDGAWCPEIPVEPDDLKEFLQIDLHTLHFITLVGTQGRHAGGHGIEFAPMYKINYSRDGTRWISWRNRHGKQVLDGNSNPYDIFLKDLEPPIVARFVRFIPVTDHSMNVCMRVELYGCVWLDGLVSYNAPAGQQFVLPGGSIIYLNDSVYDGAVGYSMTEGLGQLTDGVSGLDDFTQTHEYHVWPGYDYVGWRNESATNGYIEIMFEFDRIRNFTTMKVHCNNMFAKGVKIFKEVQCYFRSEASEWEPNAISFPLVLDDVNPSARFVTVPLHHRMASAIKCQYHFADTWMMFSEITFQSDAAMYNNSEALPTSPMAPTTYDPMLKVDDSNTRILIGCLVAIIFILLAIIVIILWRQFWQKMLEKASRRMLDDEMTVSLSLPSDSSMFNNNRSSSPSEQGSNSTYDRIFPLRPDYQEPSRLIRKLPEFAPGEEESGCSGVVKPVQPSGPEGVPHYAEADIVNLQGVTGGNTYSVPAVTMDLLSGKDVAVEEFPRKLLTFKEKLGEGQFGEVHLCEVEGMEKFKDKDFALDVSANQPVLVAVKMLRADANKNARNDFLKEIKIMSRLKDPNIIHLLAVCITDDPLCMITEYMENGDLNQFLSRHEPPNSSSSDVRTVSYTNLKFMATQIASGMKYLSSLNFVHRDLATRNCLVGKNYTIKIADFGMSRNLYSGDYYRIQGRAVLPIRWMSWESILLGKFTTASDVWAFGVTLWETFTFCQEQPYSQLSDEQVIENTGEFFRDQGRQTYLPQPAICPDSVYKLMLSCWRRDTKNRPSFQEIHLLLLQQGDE
Briefly: LanthaScreen Europium Kinase Binding assay, DDR2. The conditions noted are these: 5 nM DDR2, 10 nM Kinase Tracer 178, 1 h at rt; Ki from IC50 by Cheng-Prusoff; read-out: Ki DDR2. On the procedure:
as §1

SMILES strings stand for the structures. pKi: −log10 of the molar value. Some results are limits rather than exact numbers.

Our source for the Ki values is patent publication US20260285855A1, “HETEROARYL DERIVATIVES AS DDRS INHIBITORS” (CHIESI FARMACEUTICI S.P.A., priority 2023, published 2026).

For orientation: pKi means −log10 of the Ki, conventionally taken in molar units.

T1 sequence (Q08345 19-913): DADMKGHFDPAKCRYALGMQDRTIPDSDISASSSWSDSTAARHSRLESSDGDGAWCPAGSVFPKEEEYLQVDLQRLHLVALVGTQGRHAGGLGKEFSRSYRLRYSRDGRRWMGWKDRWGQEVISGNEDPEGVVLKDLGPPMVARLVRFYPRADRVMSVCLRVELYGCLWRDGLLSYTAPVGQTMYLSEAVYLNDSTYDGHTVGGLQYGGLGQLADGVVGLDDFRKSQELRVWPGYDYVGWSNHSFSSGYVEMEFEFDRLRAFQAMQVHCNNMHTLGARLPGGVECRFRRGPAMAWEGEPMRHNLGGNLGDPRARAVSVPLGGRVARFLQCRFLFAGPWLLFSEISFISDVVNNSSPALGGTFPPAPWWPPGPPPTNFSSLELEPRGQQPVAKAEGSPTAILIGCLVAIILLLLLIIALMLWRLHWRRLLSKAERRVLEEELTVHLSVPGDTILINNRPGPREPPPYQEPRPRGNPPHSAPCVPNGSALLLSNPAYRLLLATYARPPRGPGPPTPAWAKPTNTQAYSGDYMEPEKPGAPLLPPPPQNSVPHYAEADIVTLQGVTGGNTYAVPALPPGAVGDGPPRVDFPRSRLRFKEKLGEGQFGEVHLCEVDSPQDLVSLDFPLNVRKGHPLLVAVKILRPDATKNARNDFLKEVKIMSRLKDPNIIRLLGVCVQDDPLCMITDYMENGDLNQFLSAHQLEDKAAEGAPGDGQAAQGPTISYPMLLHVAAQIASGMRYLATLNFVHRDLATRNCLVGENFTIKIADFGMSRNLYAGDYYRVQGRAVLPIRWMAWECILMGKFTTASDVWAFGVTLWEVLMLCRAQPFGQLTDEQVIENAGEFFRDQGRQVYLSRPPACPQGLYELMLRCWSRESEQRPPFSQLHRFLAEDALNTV

As to `O=C(Nc1cccc(C(F)(F)F)c1)NC1CC2(C1)CN(c1cnc3[nH]ncc3c1)C2` [Example 138, 1-(2-(1H-pyrazolo[3,4-b]pyridine-5-yl)-2-azaspiro[3.3]heptan-6-yl)-3-(3-(trifluoromethyl)phenyl)urea], the pKi on DDR1 and on DDR2 was above 8.30 in each case.

For `COc1ccc(OC(F)(F)F)cc1NC(=O)CC1CC2(C1)CN(C(=O)c1ccnc3ccsc13)C2` [Example 139, N-(2-methoxy-5-(trifluoromethoxy)phenyl)-2-(2-(thieno[3,2-b]pyridine-7-carbonyl)-2-azaspiro[3.3]heptan-6-yl)acetamide], the pKi on DDR1 and at DDR2 was above 8.30 each time.

As to `O=C(CC1CC2(C1)CN(C(=O)c1ccnc3ccsc13)C2)Nc1cccc(C(F)(F)F)c1` [Example 140, 2-(2-(thieno[3,2-b]pyridine-7-carbonyl)-2-azaspiro[3.3]heptan-6-yl)-N-(3-(trifluoromethyl)phenyl)acetamide], the negative-log Ki (pKi) at DDR1 and at DDR2 was above 8.30 each time.

For the compound `Cn1ccn2ncc(C(=O)N3CC4(CC(CC(=O)Nc5cccc(C(F)(F)F)c5)C4)C3)c12` [Example 141, 2-(2-(1-methyl-1H-imidazo[1,2-b]pyrazole-7-carbonyl)-2-azaspiro[3.3]heptan-6-yl)-N-(3-(trifluoromethyl)phenyl)acetamide], the pKi on DDR1 and on DDR2 was above 8.30 throughout.

Take `COc1ccc(OC(F)(F)F)cc1NC(=O)CC1CC2(C1)CN(C(=O)c1cnn3ccn(C)c13)C2` [Example 142, N-(2-methoxy-5-(trifluoromethoxy)phenyl)-2-(2-(1-methyl-1H-imidazo[1,2-b]pyrazole-7-carbonyl)-2-azaspiro[3.3]heptan-6-yl)acetamide]: the pKi at DDR1 and on DDR2 was above 8.30 in each case.

Turning to `Cn1ccn2ncc(C(=O)N3CC4(CC(OC(=O)Nc5cccc(C(F)(F)F)c5)C4)C3)c12` [Example 143, 2-(1-methyl-1H-imidazo[1,2-b]pyrazole-7-carbonyl)-2-azaspiro[3.3]heptan-6-yl(3-(trifluoromethyl)phenyl)carbamate], the pKi on DDR1 and on DDR2 was above 8.30 in each case.

For `COc1ccc(OC(F)(F)F)cc1NC(=O)OC1CC2(C1)CN(C(=O)c1cnn3ccn(C)c13)C2` [Example 144, 2-(1-methyl-1H-imidazo[1,2-b]pyrazole-7-carbonyl)-2-azaspiro[3.3]heptan-6-yl(2-methoxy-5-(trifluoromethoxy)phenyl)carba-mate], the negative logarithm of the Ki (pKi) was above 8.30 on DDR1 and 7.60 to 8.30 at DDR2.

On to `O=C(Nc1cc(C(F)(F)F)ccn1)NC1CC2(C1)CN(C(=O)c1ccnc3[nH]ncc13)C2` [Example 145, 1-(2-(1H-pyrazolo[3,4-b]pyridine-4-carbonyl)-2-azaspiro[3.3]heptan-6-yl)-3-(4-(trifluoromethyl)pyridin-2-yl)urea], for which the pKi at DDR1 was above 8.30; on DDR2, 7.60 to 8.30.

For `Cn1ccn2ncc(C(=O)N3CC4(CC(OC(=O)Nc5cncc(C(F)(F)F)c5)C4)C3)c12` [Example 146, 2-(1-methyl-1H-imidazo[1,2-b]pyrazole-7-carbonyl)-2-azaspiro[3.3]heptan-6-yl(5-(trifluoromethyl)pyridin-3-yl)carbamate], the negative-log Ki (pKi) is above 8.30 at DDR1 and 7.60 to 8.30 on DDR2.

Take `O=C(Nc1cccc(C(F)(F)F)c1)OC1CC2(C1)CN(C(=O)c1cnn3ccsc13)C2` [Example 147, 2-(pyrazolo[5,1-b]thiazole-7-carbonyl)-2-azaspiro[3.3]heptan-6-yl(3-(trifluoromethyl)phenyl)carbamate]: the pKi on DDR1 and at DDR2 was above 8.30 throughout.

With `O=C(Nc1cccc(C(F)(F)F)c1)NC1CC2(C1)CN(c1nccn3cncc13)C2` [Example 149, 1-(2-(imidazo[1,5-a]pyrazin-8-yl)-2-azaspiro[3.3]heptan-6-yl)-3-(3-(trifluoromethyl)phenyl)urea], the pKi at DDR1 and at DDR2 was above 8.30 throughout.

On to `CN(C(=O)Nc1cc(CC(F)(F)F)ccn1)C1CC2(C1)CN(C(=O)c1cnn3ccn(C)c13)C2` [Example 150, 1-methyl-1-(2-(1-methyl-1H-imidazo[1,2-b]pyrazole-7-carbonyl)-2-azaspiro[3.3]heptan-6-yl)-3-(4-(2,2,2-trifluoroethyl)pyridin-2-yl)urea], for which the results for the negative-log Ki (pKi) at DDR1 and on DDR2 were above 8.30 and 7.60 to 8.30, respectively.

Turning to `Cc1ccc(OC(F)(F)F)cc1NC(=O)N(C)C1CC2(C1)CN(C(=O)c1cnn3ccsc13)C2` [Example 151, 1-methyl-3-(2-methyl-5-(trifluoromethoxy)phenyl)-1-(2-(pyrazolo[5,1-b]thiazole-7-carbonyl)-2-azaspiro[3.3]heptan-6-yl)urea], the values for the negative logarithm of the Ki (pKi) on DDR1 and at DDR2 were above 8.30 and 7.60 to 8.30, respectively.

Consider `COc1ccc(CC(F)(F)F)cc1NC(=O)NC1CC2(C1)CN(C(=O)c1cnn3ccn(C)c13)C2` [Example 152, 1-(2-methoxy-5-(2,2,2-trifluoroethyl)phenyl)-3-(2-(1-methyl-1H-imidazo[1,2-b]pyrazole-7-carbonyl)-2-azaspiro[3.3]heptan-6-yl)urea], for which the negative-log Ki (pKi) on DDR1 was above 8.30; on DDR2 it was 7.60 to 8.30.

Take `O=C(Nc1cccc(CC(F)(F)F)c1)NC1CC2(C1)CN(C(=O)c1ccnc3[nH]ncc13)C2` [Example 153, 1-(2-(1H-pyrazolo[3,4-b]pyridine-4-carbonyl)-2-azaspiro[3.3]heptan-6-yl)-3-(3-(2,2,2-trifluoroethyl)phenyl)urea]: the pKi at DDR1 and on DDR2 was above 8.30 in each case.

For the compound `O=C(Nc1cc(OC(F)(F)F)ccn1)NC1CC2(C1)CN(C(=O)c1ccnc3[nH]ncc13)C2` [Example 154, 1-(2-(1H-pyrazolo[3,4-b]pyridine-4-carbonyl)-2-azaspiro[3.3]heptan-6-yl)-3-(4-(trifluoromethoxy)pyridin-2-yl)urea], the pKi at DDR1 is above 8.30; on DDR2 it was 7.60 to 8.30.

With `Cn1ccn2ncc(C(=O)N3CC4(CC(NC(=O)Nc5cc(C6CC6)ccn5)C4)C3)c12` [Example 155, 1-(4-cyclopropylpyridin-2-yl)-3-(2-(1-methyl-1H-imidazo[1,2-b]pyrazole-7-carbonyl)-2-azaspiro[3.3]heptan-6-yl)urea], the negative logarithm of the Ki (pKi) is above 8.30 on DDR1 and 7.60 to 8.30 on DDR2.

As to `CN(C(=O)Nc1cc(C2CC2)ccn1)C1CC2(C1)CN(C(=O)c1cnn3ccn(C)c13)C2` [Example 156, 3-(4-cyclopropylpyridin-2-yl)-1-methyl-1-(2-(1-methyl-1H-imidazo[1,2-b]pyrazole-7-carbonyl)-2-azaspiro[3.3]heptan-6-yl)urea], the negative-log Ki (pKi) at DDR1 was above 8.30; at DDR2, 7.60 to 8.30.

For `CN(C(=O)Nc1cncc(C2CC2)c1)C1CC2(C1)CN(C(=O)c1cnn3ccn(C)c13)C2` [Example 157, 3-(5-cyclopropylpyridin-3-yl)-1-methyl-1-(2-(1-methyl-1H-imidazo[1,2-b]pyrazole-7-carbonyl)-2-azaspiro[3.3]heptan-6-yl)urea], the pKi on DDR1 is above 8.30; at DDR2 it was 7.60 to 8.30.

On to `[2H]C([2H])([2H])N(C(=O)Nc1cccc(C(F)(F)F)c1)C1CC2(C1)CN(C(=O)c1cnn3ccn(C)c13)C2` [Example 158, 1-(methyl-d3)-1-(2-(1-methyl-1H-imidazo[1,2-b]pyrazole-7-carbonyl)-2-azaspiro[3.3]heptan-6-yl)-3-(3-(trifluoromethyl)phenyl)urea], for which the values for the negative logarithm of the Ki (pKi) on DDR1 and at DDR2 were above 8.30 and 7.60 to 8.30, respectively.

Take `O=C(Nc1cncc(C(F)(F)F)c1)NC1CC2(C1)CN(C(=O)c1ccnc3[nH]ncc13)C2` [Example 159, 1-(2-(1H-pyrazolo[3,4-b]pyridine-4-carbonyl)-2-azaspiro[3.3]heptan-6-yl)-3-(5-(trifluoromethyl)pyridin-3-yl)urea]: the results for the negative-log Ki (pKi) on DDR1 and on DDR2 were above 8.30 and 7.60 to 8.30, respectively.

For the compound `Cn1ccc2ncnc(C(=O)N3CC4(CC(NC(=O)Nc5cccc(C(F)(F)F)c5)C4)C3)c21` [Example 160, 1-(2-(5-methyl-5H-pyrrolo[3,2-d]pyrimidine-4-carbonyl)-2-azaspiro[3.3]heptan-6-yl)-3-(3-(trifluoromethyl)phenyl)urea], the negative logarithm of the Ki (pKi) at DDR1 and at DDR2 was 7.60 to 8.30 throughout.

In the case of `Cn1ccn2ncc(C(=O)N3CC4(CC(NC(=O)Nc5cccc(S(=O)(=O)C(F)(F)F)c5)C4)C3)c12` [Example 161, 1-(2-(1-methyl-1H-imidazo[1,2-b]pyrazole-7-carbonyl)-2-azaspiro[3.3]heptan-6-yl)-3-(3-((trifluoromethyl)sulfonyl)phenyl)urea], the pKi at DDR1 is above 8.30; at DDR2, 7.60 to 8.30.
